# Test results from patent publication US20020132812A1, “Oral hypoglycaemic agents” (priority 2000, published 2002).
# Several values for one entry are separate records, joined by “and”; a condition that tells them apart may be missing. Equal values may be shown once.
# Tests used:
# Type in all cases: cell-based
# [1] = system: mouse pancreatic β-cells; experiment: Ca2+-evoked exocytosis (cell capacitance, whole-cell patch clamp) in single mouse pancreatic β-cells; details: 100 μM compound in pipette solution, free Ca2+ 0.2 μM
# Text: (§1) Pancreatic islets were isolated from fed NMRI mice (15-23 g). Briefly, the mice were stunned by a blow against the head and killed by cervical dislocation. The pancreas was quickly removed and pancreatic islets were isolated by collagenase (Sigma) digestion (Gromada et al. J. Physiol., Vol. 518 (3) pp. 745-759, 1999). For insulin release experiments, the islets were kept in RPMI-1640 tissue culture medium overnight before use. […]
# (§2) Patch pipettes were drawn from borosilicate glass capillaries. […] The currents were recorded using an Axopatch 200B patch clamp amplifier (Axon Instruments, Foster City, Calif., USA), digitized and stored in a computer using the Digidata AD-converter and the software pClamp (version 6.0; Axon Instruments). Alternatively, KATP-currents were recorded using an EPC-9 patch clamp amplifier and the Pulse software (v. 8.01; HEKA Elektronik, Lamprecht/Pfalz, Germany). Exocytosis was monitored as increases in cell membrane capacitance (Neher & Marty Proc. Natl. Acad, Sci. USA, Vol. 79, pp. 6712-6716,1982) using the standard whole-cell configuration of the patch-clamp technique and an EPC-9 patch-clamp amplifier and the Pulse software (v. 8.01; HEKA Elektronik). […]
# [2] = system: rat pancreatic α-cells; experiment: Ca2+-dependent exocytosis (cell capacitance) in single rat pancreatic α-cells
# Method: Male Lewis rats (250-300 g; Møllegaard, Lille Skensved, Denmark) were anaesthetised by pentobarbital (100 mg/kg i.p.). After removal of the pancreas, islets were isolated by collagenase digestion and dispersed into single cells using dispase (Sigma). The α-cells were then separated by fluorescence-activated cell sorting as described elsewhere (Josefsen et al. J. Endocrinol., Vol.149, pp.145-154, 1996). Based on the hormone contents and their glucose sensitivities, we estimate that the preparation contains >80% α-cells and <3% β-cells. […]
# as §2
# [3] = molecular target: T1, ATP-sensitive K+-channels (KATP-channels) (Mus musculus, UniProt Q61743); experiment: Whole-cell ATP-sensitive K+ current (KATP-channel activity) in single mouse β-cells; details: 100 μM compound; six experiments; cells dialysed with 0.3 mM ATP and 0.3 mM ADP
# T1 construct: Pancreatic islets were isolated from fed NMRI mice (15-23 g); endogenous in cells; host or cells: single beta-cells dispersed from pancreatic islets of NMRI mice
# Text: as §1, §2
# T1 sequence (Q61743 whole entry): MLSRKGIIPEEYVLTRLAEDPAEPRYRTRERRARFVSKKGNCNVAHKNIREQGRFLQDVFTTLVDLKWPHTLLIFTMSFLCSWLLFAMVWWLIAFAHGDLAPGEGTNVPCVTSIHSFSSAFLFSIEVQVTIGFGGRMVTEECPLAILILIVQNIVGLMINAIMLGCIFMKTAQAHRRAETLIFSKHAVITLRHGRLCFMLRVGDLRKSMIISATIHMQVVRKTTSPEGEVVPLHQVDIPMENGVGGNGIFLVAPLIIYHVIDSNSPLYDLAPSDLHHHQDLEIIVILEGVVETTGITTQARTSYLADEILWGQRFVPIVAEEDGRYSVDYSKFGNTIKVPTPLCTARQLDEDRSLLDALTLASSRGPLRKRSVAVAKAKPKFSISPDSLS
# T1 sequence (B2RUS7 1-1588 partner): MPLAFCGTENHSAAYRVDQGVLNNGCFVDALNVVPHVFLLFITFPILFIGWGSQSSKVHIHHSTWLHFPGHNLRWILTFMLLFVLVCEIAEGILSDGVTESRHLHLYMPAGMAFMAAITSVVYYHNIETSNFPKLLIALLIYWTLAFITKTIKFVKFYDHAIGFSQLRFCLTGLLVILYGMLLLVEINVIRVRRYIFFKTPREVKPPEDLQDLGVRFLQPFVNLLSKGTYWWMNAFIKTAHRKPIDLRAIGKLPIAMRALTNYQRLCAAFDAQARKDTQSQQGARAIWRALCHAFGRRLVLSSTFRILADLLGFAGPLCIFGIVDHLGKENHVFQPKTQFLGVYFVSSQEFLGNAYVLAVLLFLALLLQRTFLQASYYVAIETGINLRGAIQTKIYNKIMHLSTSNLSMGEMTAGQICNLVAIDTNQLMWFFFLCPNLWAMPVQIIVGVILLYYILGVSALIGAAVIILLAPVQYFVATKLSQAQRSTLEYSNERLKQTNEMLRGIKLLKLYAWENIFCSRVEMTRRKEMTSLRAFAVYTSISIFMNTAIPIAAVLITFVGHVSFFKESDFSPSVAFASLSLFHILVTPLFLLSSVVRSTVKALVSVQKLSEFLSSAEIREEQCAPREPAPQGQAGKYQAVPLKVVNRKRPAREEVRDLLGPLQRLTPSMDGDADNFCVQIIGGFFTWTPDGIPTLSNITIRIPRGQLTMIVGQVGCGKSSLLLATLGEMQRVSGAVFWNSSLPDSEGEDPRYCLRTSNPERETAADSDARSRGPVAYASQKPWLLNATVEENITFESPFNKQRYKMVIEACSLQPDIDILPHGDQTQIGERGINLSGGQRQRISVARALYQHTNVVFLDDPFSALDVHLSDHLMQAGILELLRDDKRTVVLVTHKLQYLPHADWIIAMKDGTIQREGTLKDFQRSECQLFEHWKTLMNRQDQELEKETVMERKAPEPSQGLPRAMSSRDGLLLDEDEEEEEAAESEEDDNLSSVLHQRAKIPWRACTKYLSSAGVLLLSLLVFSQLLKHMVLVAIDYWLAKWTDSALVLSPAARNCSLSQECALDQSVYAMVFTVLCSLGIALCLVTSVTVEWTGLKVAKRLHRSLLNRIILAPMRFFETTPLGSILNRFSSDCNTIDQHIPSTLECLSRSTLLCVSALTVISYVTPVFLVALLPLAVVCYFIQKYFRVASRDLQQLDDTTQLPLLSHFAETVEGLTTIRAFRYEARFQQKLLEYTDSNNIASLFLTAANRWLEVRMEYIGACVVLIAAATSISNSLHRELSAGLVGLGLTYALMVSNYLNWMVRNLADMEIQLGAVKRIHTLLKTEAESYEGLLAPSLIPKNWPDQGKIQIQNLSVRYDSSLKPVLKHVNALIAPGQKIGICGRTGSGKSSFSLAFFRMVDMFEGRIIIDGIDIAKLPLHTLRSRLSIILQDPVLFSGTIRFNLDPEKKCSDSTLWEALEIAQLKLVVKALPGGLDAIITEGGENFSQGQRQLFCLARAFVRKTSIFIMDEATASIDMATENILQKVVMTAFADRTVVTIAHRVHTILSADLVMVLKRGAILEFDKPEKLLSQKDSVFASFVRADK
smiles,measurement,setting,value
"COc1cccc(C(CC2=NCCN2)c2ccccn2)c1 (single isomer, unassigned; (-)) [compound (Ex 2), (−)-2-(2-(4,5-Dihydro-1H-imidazol-2-yl)-1-(3-methoxyphenyl)ethyl)pyridine]",effect on Ca2+-evoked exocytosis (in words),[1],strong stimulation of exocytosis
same,rate of exocytosis (ΔCm/Δt) measured over the first 60 s after establishment of the whole-cell configuration,"[1]; control 5.0±0.3 fF/s, P<0.025",9.4±1.7 fF/s
same,rate of exocytosis (ΔCm/Δt) measured over the first 60 s after establishment of the whole-cell configuration,"[2]; 100 μM compound in pipette solution, free Ca2+ 2 μM, control 16.8±2.5 fF/s, n=5",4.6±0.7 fF/s
same,effect on Ca2+-dependent exocytosis (in words),"[2]; 0.1 mM compound, Ca2+ 2 μM",strong inhibition of the exocytotic response
same,"whole-cell KATP current / channel activity, % of prestimulatory level",[3],90±4% and 90+4%
